Measurements as given in the supplement of paper PMC11451515.

Key:
Settings in all cases: 48 h
NOMO1 [1] = experiment: AUC of viability dose-response curve (% viability x log10 dose units); higher = less sensitive
Outline: (§1)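 Library compounds in DMSO were applied for 48 h at 37°C at 11 threefold doses (47 μM to 0.79 nM) to medium-adapted leukemia cells in 1536-well plates holding 500 or 1000 cells/well. Luminescence from CellTiter-Glo One was normalised plate by plate against DMSO and cell-free wells. Area under the curve came from trapezoidal integration of a log-logistic fit, after scaling curves that rose above full viability and discarding those that failed quality control. The fit had four parameters and used log10 doses.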

P12-Ichikawa [2] = experiment: as above
Outline: as §1

SEM cells [3] = experiment: as above
Outline: as §1

NOMO1 [4] = experiment: cell viability relative to DMSO control; higher = less cytotoxic
Outline: (§2)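 Viability is expressed as a percentage of DMSO wells within each plate, and cell-free wells serve as background. Seeding densities in the 1536-well plates (5 μl) were 500 cells/well for NOMO1 or SEM leukemia cells and 1000 cells/well for P12-Ichikawa. Each line was adapted for at least four passages in each medium. Library compounds in DMSO were pin-dosed at 47 μM to 0.79 nM (11 points, threefold), and CellTiter-Glo One luminescence was read after 48 h at 37°C.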

P12-Ichikawa [5] = experiment: as above
Outline: as §2

SEM cells [6] = experiment: as above
Outline: as §2

CN1C(=O)/C(=C(NC2=CC=C(I)C=C2F)\C3=C1\N=C/N(C[C@@H](O)CO)C3=O)F
AUC of viability dose-response curve
Settings | NOMO1 [1] | P12-Ichikawa [2] | SEM cells [3]
HPLM + 10% dialyzed FBS | 229 | 381 | 339
RPMI 5 mM glucose + 10% FBS | 231 | 342 | 330
RPMI 5 mM glucose + 10% dialyzed FBS | 216 | 369 | 295

cell viability [%]
Settings | NOMO1 [4] | P12-Ichikawa [5] | SEM cells [6]
HPLM + 10% dialyzed FBS, 0.000781 µM | 68.9 | 86.5 | 77.3
HPLM + 10% dialyzed FBS, 0.00234 µM | 64.9 | 82.2 | 76.4
HPLM + 10% dialyzed FBS, 0.00702 µM | 72.1 | 87.2 | 92.5
HPLM + 10% dialyzed FBS, 0.0211 µM | 58.8 | 89.6 | 90.9
HPLM + 10% dialyzed FBS, 0.0632 µM | 48.5 | 81.1 | 89.6
HPLM + 10% dialyzed FBS, 0.19 µM | 48.8 | 82.8 | 79.6
HPLM + 10% dialyzed FBS, 0.569 µM | 41.3 | 75.4 | 70.6
HPLM + 10% dialyzed FBS, 1.71 µM | 33.7 | 80.3 | 59.6
HPLM + 10% dialyzed FBS, 5.12 µM | 30.2 | 74.8 | 65.6
HPLM + 10% dialyzed FBS, 15.4 µM | 36.2 | 71.3 | 18.6
HPLM + 10% dialyzed FBS, 46.1 µM | 26.4 | 62.9 | 51.3
RPMI 5 mM glucose + 10% FBS, 0.000781 µM | 69.9 | 78.2 | 79.2
RPMI 5 mM glucose + 10% FBS, 0.00234 µM | 77.6 | 74.9 | 98.6
RPMI 5 mM glucose + 10% FBS, 0.00702 µM | 78.7 | 83.6 | 107
RPMI 5 mM glucose + 10% FBS, 0.0211 µM | 52.5 | 73.8 | 91.8
RPMI 5 mM glucose + 10% FBS, 0.0632 µM | 48 | 71.6 | 74.6
RPMI 5 mM glucose + 10% FBS, 0.19 µM | 45.7 | 71.3 | 73.2
RPMI 5 mM glucose + 10% FBS, 0.569 µM | 31.1 | 72.1 | 53.9
RPMI 5 mM glucose + 10% FBS, 1.71 µM | 34.6 | 70.4 | 60.2
RPMI 5 mM glucose + 10% FBS, 5.12 µM | 30.7 | 68 | 68.5
RPMI 5 mM glucose + 10% FBS, 15.4 µM | 37.8 | 68.9 | 12.8
RPMI 5 mM glucose + 10% FBS, 46.1 µM | 32.7 | 40.5 | 30.6
RPMI 5 mM glucose + 10% dialyzed FBS, 0.000781 µM | 69.2 | 81.1 | 77.5
RPMI 5 mM glucose + 10% dialyzed FBS, 0.00234 µM | 60 | 82.2 | 71.3
RPMI 5 mM glucose + 10% dialyzed FBS, 0.00702 µM | 71.1 | 85.6 | 90.8
RPMI 5 mM glucose + 10% dialyzed FBS, 0.0211 µM | 46 | 86.7 | 93.2
RPMI 5 mM glucose + 10% dialyzed FBS, 0.0632 µM | 48.9 | 77.7 | 69.6
RPMI 5 mM glucose + 10% dialyzed FBS, 0.19 µM | 41.7 | 81.9 | 64.2
RPMI 5 mM glucose + 10% dialyzed FBS, 0.569 µM | 37.5 | 76.2 | 54.8
RPMI 5 mM glucose + 10% dialyzed FBS, 1.71 µM | 33.7 | 80.1 | 54.8
RPMI 5 mM glucose + 10% dialyzed FBS, 5.12 µM | 32.7 | 78 | 53
RPMI 5 mM glucose + 10% dialyzed FBS, 15.4 µM | 31.8 | 65.2 | 14.2
RPMI 5 mM glucose + 10% dialyzed FBS, 46.1 µM | 29.5 | 39.2 | 28
